The source of these data is EP0742015A1, “Prodrugs for beta-lactamase and uses thereof” (Bristol-Myers Squibb Company, priority 1990, dated 1992).

Data set [1] is described as follows: Stability of ADR-ceph in rat plasma at 37°C, HPLC. Format: in vitro ADME. As for the experimental part: (§1) Stock solutions of the β-lactamase and lactamase-L6 conjugate were prepared in 0.05 M Hepes buffer (pH7). Aliquots of these stock solutions were added to solutions of ADR-ceph in human plasma thermostated at 37°C. The final concentration of ADR-ceph was 572 µg/ml in the β-lactamase experiment and 896 µg/ml in the L6-lactamase experiment; and the final concentrations of β-lactamase and L6-lactamase conjugate were 0.45 µg/ml and 5.4µg/ml, respectively. Aliquots were withdrawn periodically and were added to two volumes of cold methanol (4°C). The precipitated proteins were removed by centrifugation. The supernatants were analyzed by HPLC using a Waters Associates C18 Radial Pak cartridge (8x100 mm). The column was eluted at 2.0 mL/min with a mobile phase of 60% of 0.05 M ammonium phosphate (pH 6.5) containing 5% acetonitrile and 40% of a mixture of acetonitrile-water (80:20). The peaks were detected by uv at 254 nm. In these assays the respective retention times for adriamycin and ADR-ceph were 3.8 and 7.5 minutes.
(§2) Using the same HPLC assay described in Example 2.2.2 the respective half lives at 37°C of ADR-ceph in rat plasma, buffer at pH 7.4, and human plasma are 8, 20 and ≧ 12 hours (Figure 9).

In data set [2] the target is P99 cephalosporinase from E. cloacae (Enterobacter cloacae, UniProt P05364). Type of data set: biochemical. The settings on record: pH 7.
The nature of data set [3]: Stability of ADR-ceph in buffer at pH 7.4 at 37°C, HPLC. The settings on record: buffer at pH 7.4, 37°C. Format: physicochemical. The method, then:
as §1, §2

The nature of data set [4]: Stability of ADR-ceph in human plasma at 37°C, HPLC. Type of data set: in vitro ADME. The method, then:
as §1, §2

The target of data set [5] is β-lactamase from B. cereus (Bacillus cereus, UniProt P04190). Description: Release of adriamycin from ADR-ceph in human plasma at 37°C, HPLC. Type of data set: biochemical. To be noted: human plasma 37°C, ADR-ceph 572 µg/ml, β-lactamase 0.45 µg/ml. The method, then: The ability of the purified β-lactamase from B. cereus and the lactamase-L6 conjugate to catalyze the release of adriamycin from ADR-ceph was evaluated in human plasma at 37°C.
as §1

The target in data set [6] is B. cereus β-lactamase (Bacillus cereus, UniProt P04190). Format: biochemical. The settings on record: substrate 100 µg/ml, 0.05 M phosphate buffer, pH 7.0, 25°C.
In data set [7] the target is Sigma penicillinase from E. cloacae (Enterobacter cloacae, UniProt P05364). Briefly: Specific activity of β-lactamases for cephalosporin substrates, spectrophotometric. Type of data set: biochemical. The settings on record: substrate 100 µg/ml, 0.05 M phosphate buffer, pH 7.0, 25°C. As for the experimental part: The specific activities of selected β-lactamases for ADR-ceph were examined. These enzymes were B. cereus β-lactamase, lactamase-L6 conjugate, Sigma penicillinase from E. cloacae (Sigma Chemical) and P99 cephalosporinase from E. cloacae. All enzymes were diluted to give protein concentrations of 0.20 ± 0.01 mg/ml (with respect to β-lactamase). Assays were performed spectrophotometrically to 0.05 M phosphate buffer, pH 7.0, at 25°C. Cephaloridine was used as a reference substrate for the enzymes.
P99 cephalosporinase had the highest specific activity for both cephaloridine and ADR-ceph. […] The Sigma "penicillinase" had the lowest activity of all the preparations. […] The differences in activity is probably due to differences in purity between the two preparations.

Data set [8] has as its target L6-lactamase (B. cereus) conjugate (Bacillus cereus, UniProt P04190). Type of data set: biochemical. To be noted: pH 7.
Another data set can be described thus: in vitro. To be noted: mouse, plasma.
Data set [9] has as its target T1, B. cereus β-lactamase (II) (Bacillus cereus, UniProt P04190).
T1 sequence (P04190 31-257): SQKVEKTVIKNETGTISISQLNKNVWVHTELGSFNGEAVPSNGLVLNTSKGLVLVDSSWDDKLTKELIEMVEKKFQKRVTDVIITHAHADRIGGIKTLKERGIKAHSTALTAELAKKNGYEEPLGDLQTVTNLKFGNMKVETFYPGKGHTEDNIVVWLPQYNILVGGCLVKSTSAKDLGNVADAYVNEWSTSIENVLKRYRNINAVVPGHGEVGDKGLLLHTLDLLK
Format: biochemical.

Data set [10] relates to human lung adenocarcinoma cell line, H2981.
For the next data set, the system named is E. coli β-lactamase. Description: Hydrolysis of CM by commercially available β-lactamase in PBS at 37° C, HPLC. The settings on record: CM 50 µM in PBS at 37° C, 3 µg total protein/ml, partially purified enzyme. Type of data set: biochemical.
The subject of a further data set is H2981 lung cells. Description: In vitro cytotoxicity of CM with L6-β-lactamase conjugate, 3H-thymidine incorporation. To be noted: cells exposed to L6-β-lactamase conjugate 1 hr at 37° C, washed, then CM. (In general: Dividing cells build labelled thymidine or BrdU into new DNA.)
Another data set in a line: physchem. The settings on record: imdm cell growth medium.
Data set [11] has as its target T2, B. cereus β-lactamase (Bacillus cereus, UniProt P04190).
T2 construct: purchased Sigma Chem. Co
T2 sequence (P04190 31-257): T1 sequence (P04190 31-257)
Type of data set: biochemical. To be noted: CM 50 µM in PBS at 37° C, 3 µg total protein/ml, partially purified enzyme.

The subject of the next data set is Balb C nu/nu mice. The settings on record: mouse, in vivo, iv.
Data set [12] addresses T3, BCP II (Bacillus cereus penicillinase) (Bacillus cereus, UniProt P04190).
T3 sequence (P04190 31-257): T1 sequence (P04190 31-257)
Description: Conversion of the cephalosporin-mitomycin prodrug by BCP II in PBS, followed by TLC. Format: biochemical. To be noted: 0.3 mg compound in PBS (1 mL), BCP II 10 µL (4.1 mg/mL). The method, then: To a greyish blue solution of the title compound (0.3 mg) in PBS (1 mL) was added BCP II (Bacillus cereus penicillinase, 10 µL, protein concentration = 4.1 mg/mL). Immediately the color changed to blue.

Sequence of P99 cephalosporinase from E. cloacae (P05364 21-381): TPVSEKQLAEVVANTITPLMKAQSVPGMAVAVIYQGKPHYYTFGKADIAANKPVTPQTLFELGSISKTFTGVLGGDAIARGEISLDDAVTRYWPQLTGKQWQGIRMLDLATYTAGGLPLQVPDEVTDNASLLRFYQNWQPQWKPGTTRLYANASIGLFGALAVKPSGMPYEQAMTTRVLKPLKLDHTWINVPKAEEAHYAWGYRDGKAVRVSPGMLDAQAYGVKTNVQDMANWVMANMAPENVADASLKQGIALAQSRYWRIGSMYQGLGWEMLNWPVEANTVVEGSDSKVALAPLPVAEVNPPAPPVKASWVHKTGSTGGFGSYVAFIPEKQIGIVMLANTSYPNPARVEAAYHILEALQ
Sequence of Sigma penicillinase from E. cloacae (P05364 21-381): as above

Usually half-life stands for the time in which the quantity being followed falls by half. As for `COc1cccc2c1C(=O)c1c(O)c3c(c(O)c1C2=O)C[C@@](O)(C(=O)CO)C[C@@H]3O[C@H]1C[C@H](NC(=O)OCC2=C(C(=O)O)N3C(=O)C(NC(=O)Cc4ccccc4)C3SC2)[C@H](O)[C@H](C)O1` (some centres unmarked) [ADR-ceph, 3-[[(N-adriamycinyl)carbonyloxy]methyl]-7-phenylacetamido-8-oxo-5-thia-1-azabicyclo[4.2.0]oct-2-ene-2-carboxylic acid], the half-life in [1] was 8 h; in [3], 20 h; in data set [4], no less than 12 h. Also, the “Hydrolysis, µmoles/min/µg protein” value was determined as 0.060 µmoles/min/µg protein in data set [2], 0.016 µmoles/min/µg protein on B. cereus β-lactamase [6], 0.0030 µmoles/min/µg protein in data set [7] and 0.021 µmoles/min/µg protein in [8]. Further, the “hydrolysis of ADR-ceph, release of adriamycin” value in data set [5] is “efficiently hydrolyzed”.

The Km is the concentration of substrate that gives half-maximal velocity. Usually Vmax stands for the top rate of the reaction or transport when substrate is in excess. A word on the IC50: it is the point on the concentration scale where inhibition reaches its midpoint. A low value points to greater potency. With `O=C(Cc1ccccc1)NC1C(=O)N2C(C(=O)O)=C(COC(=O)Nc3ccc(N(CCCl)CCCl)cc3)CSC12` (centres unmarked) [CM], the metabolised at 2.5 h, 500 µM in “in vitro” turned out to be 12%. Further, in data set [9] (CM as substrate), the Michaelis constant (Km) stood at 25 µM and the Vmax amounted to 250 µmol/min/mg. In data set [10], the concentration for half-maximal inhibition (IC50) is roughly 100 µM, the “cytotoxic activity of CM with purified B. cereus β-lactamase (II)” value was “enhanced the cytotoxic activity of CM to the level observed for PDM” and the “enhancement of the activity of CM by β-lactamases” value is 50-100 fold. In the data set with E. coli β-lactamase, the “hydrolysis of CM, release of PDM” value was “able to hydrolyze CM to release the nitrogen mustard, PDM”. The “cytotoxic effect of CM with the antibody-β-lactamase conjugate” value with H2981 lung cells is listed as “enhanced cytotoxic effect”. Further, the half-life at 500 µM in “physchem” came out at 0.5 h. Moreover, the “hydrolysis of CM, release of PDM” value at B. cereus β-lactamase [11] is “able to hydrolyze CM to release the nitrogen mustard, PDM”. In the data set on Balb C nu/nu mice, the “difference in toxicity on a molar basis, CM versus PDM” value is reported as greater than 11 fold and the “dose up to which no toxicity was observed” value was no less than 900 µg/injection.

`O=C(Cc1cccs1)N[C@@H]1C(=O)N2C(C(=O)[O-])=C(C[n+]3ccccc3)CS[C@H]12` [Cephaloridine, reference compound]: the “Hydrolysis, µmoles/min/µg protein” value in data set [2] is given as 0.30 µmoles/min/µg protein; at B. cereus β-lactamase [6] it was 0.038 µmoles/min/µg protein; in [7], 0.026 µmoles/min/µg protein; in [8], 0.045 µmoles/min/µg protein.

Turning to `O=C(O)CN(CCN(CC(=O)O)CC(=O)O)CC(=O)O` [EDTA, reference compound], the “inhibition of the enzyme activity” value in [9] is “completely inhibited”.

Consider `COC12C(COC(N)=O)C3=C(C(=O)C(C)=C(NCC4=C(C(=O)O)N5C(=O)C(NC(=O)Cc6ccccc6)C5SC4)C3=O)N1CC1NC12` (centres unmarked) [Example 1.2.5, 7-Phenylacetamido-3-(N^7-mitomycin C)-8-oxo-5-thia-1-azabicyclo[4.2.0]oct-2-ene-2-carboxylic acid], for which the “conversion to mitomycin C” value in [12] was “complete conversion to mitomycin C”.
